Data set [1] in a line: Solubility of representative compounds (Table 1). Type of data set: physicochemical. To be noted: solvents listed.
The next data set addresses T1, 5-HT2CR (Homo sapiens, UniProt P28335).
T1 sequence (P28335 33-458): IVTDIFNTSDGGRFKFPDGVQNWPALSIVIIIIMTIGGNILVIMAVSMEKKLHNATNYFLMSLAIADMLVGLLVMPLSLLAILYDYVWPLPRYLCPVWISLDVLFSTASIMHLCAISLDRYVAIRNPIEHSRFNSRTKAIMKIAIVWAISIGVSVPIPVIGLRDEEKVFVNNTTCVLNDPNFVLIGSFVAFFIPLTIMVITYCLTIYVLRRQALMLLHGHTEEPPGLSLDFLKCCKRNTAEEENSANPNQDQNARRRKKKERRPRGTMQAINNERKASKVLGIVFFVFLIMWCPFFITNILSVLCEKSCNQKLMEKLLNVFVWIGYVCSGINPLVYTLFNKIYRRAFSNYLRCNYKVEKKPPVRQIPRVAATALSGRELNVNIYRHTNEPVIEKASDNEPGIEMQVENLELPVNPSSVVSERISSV
Description: 5-HT induced intracellular calcium (Cai++) release assay in live 5-HT2CR-CHO cells. Type of data set: cell-based. Details: expressed in transfected cells. To be noted: 5-HT2CR-CHO cells. As for the experimental part:
Selected results for the biological characterization of the synthesized compounds can be found in Ding et al., ACS Chem. Neurosci., 3, 538-545, 2012, and also described herein. The biological activity is assessed using an intracellular calcium (Cai^++) release assay. The best-characterized intracellular signaling pathway of the 5-HT2CR is the activation of phospholipase C (PLCβ) via Gαq/11 proteins and the production of diacylglycerol (DAG) and inositol-1,4,5-trisphosphate (IP3), leading to increased Cai^++ release from intracellular stores (Berg et al., Neuropharmacology 55, 969-76, 2008). Functional characterization of our synthetic PNU-69176E (CYD-1-78-2) and its diastereomer CYD-1-78-1 was determined by utilizing an Cai^++ release assay in live cells in which Cai^++ levels can be regarded as an outcome measure of activation of the 5-HT2CR signaling pathway (Berg et al., Neuropharmacology 55, 969-76, 2008). […] In addition, 1 nM of compound CYD-1-78-2 enhanced the Cai^++ response at low concentrations of 5-HT [10^11-3×10^−10 M; F(15,55)=16.73, p<0.01; FIG. 2]. […] Neither compound CYD-1-78-2 [F(10,68)=0.81, n.s.] nor the diastereomer CYD-1-78-1 [F(10,34)=0.76, n.s.] in concentrations up to 10^−5 M induced Cai^++ release in the 5-HT2CR—CHO cells in the absence of 5-HT (FIG. 3). This profile for compounds CYD-1-78-2 and −1 in 5-HT2CR—CHO cells was distinguished from that seen in 5-HT2AR—CHO cells in which neither compound alone or in the presence of 5-HT (compound CYD-1-78-1, F(10,43)=0.78; compound CYD-1-78-2, F(10,55)=1.27; FIG. 4) altered Cai^++ release (Ding et al., ACS Chem. Neurosci. 3, 538-545, 2012).
The Chinese hamster ovary (CHO) cell line stably transfected with 5-HT2CR was a generous gift of K. Berg and W. Clarke (University of Texas Health Science Center, San Antonio) (K. A. Berg, W. P. Clarke, C. Sailstad, A. Saltzman and S. Maayani, Mol. Pharmacol. 1994, 46 (3), 477-484; Ding et al., ACS Chem. Neurosci. 3, 538-545, 2012). Cells were grown at 37° C., 5% CO2 and 85% relative humidity in GlutaMax α-MEM (Invitrogen, Carlsbad Calif.), 5% fetal bovine serum (Atlanta Biologicals, Atlanta Ga.), 100 μg/mL hygromycin (Mediatech, Manassas Va.) and were passaged when they reached 80% confluence.
Changes in Cai^++ levels were determined using the calcium sensitive dye Calcium 4 (FLIPR No-wash kit, Molecular Devices, Sunnyvale, Calif., part #R8142). Cells were plated in serum-replete medium at 20,000 cells/well in black-sided, clear bottom 96-well tissue culture plates and were fed ˜24 hrs later with serum-free medium. Following overnight incubation, medium was removed and replaced with 40 μL of fresh serum-free medium plus 40 μL Calcium 4 dye solution in Hank's balanced saline solution (HBSS, without CaCl2 or MgCl2) supplemented with 2.5 mM water soluble probenicid (Invitrogen) to inhibit extracellular transport of the dye. Plates were incubated for 60 min at 37° C. and 60 min at room temperature in the dark. Fluorescence (λex=485 nm, λem=525 nm) was measured with a FlexStation3 (Molecular Devices). A baseline was established for each well during the initial segment of each run. Addition of 20 μL of 5× concentrated tested compound occurred at 17 sec and fluorescence was recorded every 1.7 sec for 90 sec to determine any innate agonist activity. This first round of 90 sec recordings provided a 20 min preincubation period. […] Maximum peak height was determined by the FlexStation software (SoftMax Pro 5.2) for each well and was normalized to vehicle control.
In general terms: Calcium assays in cells follow changes in intracellular calcium, usually with a dye or a luminescent sensor.

The structures appear in SMILES notation. “Also recorded” adds a separate entry of the source.

Experimental findings from patent US9533973B2, “Allosteric modulators of 5-hydroxytryptamine 2C receptor (5-HT2CR)” (THE BOARD OF REGENTS OF THE UNIVERSITY OF TEXAS SYSTEM, priority 2011, dated 2017) are described below.

As usually defined, the EC50 is the concentration needed to bring the measured effect to its halfway point. Consider `CS[C@H]1OC([C@@H](NC(=O)C2CNCCN2c2ccccc2)[C@H](C)Cl)[C@H](O)[C@H](O)[C@H]1O` (stereo partly drawn) [CYD-1-82, 1-Phenyl-piperazine-2-carboxylic acid [2-chloro-1-(3,4,5-trihydroxy-6-methylsulfanyl-tetrahydro-pyran-2-yl)-propyl]amide], for which the Solubility result in data set [1] is listed as “EtOH, DMSO”. On 5-HT2CR (positive allosteric modulation), the “effect on 5-HT-induced Cai++ release” value is “enhanced; also recorded: potentiated”. Moreover, on 5-HT2CR (5-HT-induced Cai++ release), the EC50 stood at 8 ± 4 nM.
